Data: publication PMC6154319, “Intestinal Transport Characteristics and Metabolism of C-Glucosyl Dihydrochalcone, Aspalathin” (Molecules : A Journal of Synthetic Chemistry and Natural …, 2017)
Read-outs that look alike come from different tables or passages of the source. Marks after values point to notes of the source that are not given here.

How the values were obtained:
[1] = Lipophilicity, LogD7.4 (n-octanol / phosphate buffer shake flask); assay type: physicochemical; conditions: phosphate buffer pH 7.4 / n-octanol
Method: For determination of the lipophilicity of aspalathin, a 10 mM stock solution prepared in DMSO was used to spike (100 µM) a 1:1 mixture of phosphate buffer (pH 7.4) and n-octanol. The solutions were shaken vigorously (1500 rpm) on an orbital shaker for 4 h at room temperature. Thereafter, the samples were centrifuged (3500 rpm, 2700× g) in order to fully separate the two immiscible fluids. The samples analysed using HPLC-DAD (Agilent 1200 Rapid Resolution HPLC) and the partition coefficient, LogD7.4 calculated.

[2] = Stability of aspalathin (in SB1) in water and HEPES buffer; assay type: physicochemical; conditions: 2 h incubation, aspalathin in extract SB1
[3] = Acute mouse study, metabolite identification in blood and urine by LC-MS/MS; assay type: in vivo; conditions: oral 50 mg/kg
Method: An acute mouse study was performed under ethical approval from the Ethics Committee for Research on Animals (ECRA) of the South African Medical Research Council (Ref:07/13). Three 8-week old male C57.BKS mice, obtained from the Primate Unit of the South African Medical Research Council (Tygerberg, South Africa), were housed individually in polycarbonate cages with wired lids and kept in a controlled environment of 23–24 °C, 50% humidity, and a 12 h light/dark cycle. Prior to the study, urine was collected from the fasting mice overnight in a metabolic cage. Baseline fasted blood was collected via tail snip into a heparin tube, snap frozen in liquid nitrogen, and stored at −80 °C. Each mouse received a single dose of synthetic aspalathin (50 mg/kg body weight) dissolved in phosphate-buffered saline (PBS) (5 mg/mL) via orogastric gavage. Blood samples were collected and handled as described for fasting at time 0 (pre-gavage), and 1, 2, 4, 6, and 8 h post-gavage. All the samples were collected into the same heparin tube and kept on ice during the experiment. Urine was collected over the 8-h post-gavage monitoring period and the samples were stored at −80 °C until analysis.
The frozen whole blood samples, as well as the samples incubated with microsomes and controls, were thawed, extracted by protein precipitation using 0.1% formic acid (FA) in acetonitrile, centrifuged and filtered through 0.22 µm polyvinylidene difluoride (PVDF) filters (Merck Millipore, Frankfurter Straße, Darmstadt, Germany). Frozen whole urine samples were thawed and diluted 5 times in 0.1% aqueous FA. Samples were analysed by LC-MS/MS on an Agilent 1200 Rapid Resolution HPLC system (600 bar, Agilent Technologies) coupled to a 4000 QTRAP® (AB Sciex, Framingham, MA, USA) equipped with a Turbo V™ […]. Filtered samples (10 μL), stored on a sample tray maintained at 8 °C, were injected on a Gemini C6-Phenyl column (150 × 2.0 mm, 3 µm particles) (Phenomenex, Santa Clara, CA, USA) at 40 °C. […]

GLUT2 = molecular target: T1, GLUT2 (Homo sapiens, UniProt P11168); conditions: aspalathin 100 µM; 100 µM phloretin (GLUT2)
T1 sequence (P11168 1-524): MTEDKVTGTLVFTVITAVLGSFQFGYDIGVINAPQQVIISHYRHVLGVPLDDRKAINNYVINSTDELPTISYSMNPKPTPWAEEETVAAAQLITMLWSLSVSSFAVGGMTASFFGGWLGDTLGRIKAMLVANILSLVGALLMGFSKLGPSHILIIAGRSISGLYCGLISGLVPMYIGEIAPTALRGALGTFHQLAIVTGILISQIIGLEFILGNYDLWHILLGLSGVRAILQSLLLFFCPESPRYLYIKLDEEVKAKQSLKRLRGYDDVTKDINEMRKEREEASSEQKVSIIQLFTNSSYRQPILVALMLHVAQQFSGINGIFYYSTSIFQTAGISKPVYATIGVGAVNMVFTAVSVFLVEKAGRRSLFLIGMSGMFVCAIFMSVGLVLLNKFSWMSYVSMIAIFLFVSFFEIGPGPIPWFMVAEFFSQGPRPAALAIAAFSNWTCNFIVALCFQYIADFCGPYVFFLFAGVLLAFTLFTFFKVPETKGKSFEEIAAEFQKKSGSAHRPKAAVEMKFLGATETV

intestinal epithelium = test system: intestinal epithelium; set-up: method as in earlier work; conditions: ref 37 Huang et al., cited from earlier work

O=C(CCc1ccc(O)c(O)c1)c1c(O)cc(O)c([C@@H]2O[C@H](CO)[C@@H](O)[C@H](O)[C@H]2O)c1O [Aspalathin]
Log D at pH 7.4 [1]: 0.13 | percentage aspalathin degradation ([2]; HEPES buffer pH 6): 10% | percentage aspalathin degradation ([2]; HEPES buffer pH 7.4): 11% | percentage aspalathin degradation ([2]; deionised water): 1% | detection of aspalathin and metabolites in blood ([3]; blood 1-8 h post-gavage): No aspalathin, nor any of its metabolites, could be detected | number of aspalathin metabolites detected in the urine ([3]; urine over 8 h): 13 | Papp a-b + Inhibitor (phloretin) (GLUT2): 1.67 ± 0.43 ^c ×10^−6 cm/s | Papp b-a + Inhibitor (phloretin) (GLUT2): 1.95 ± 1.1 ^c ×10^−6 cm/s | transport of aspalathin (Papp) (intestinal epithelium; equal concentration of pure aspalathin): 2.48 ± 0.03 × 10^−6 cm/s | transport of aspalathin (Papp) (intestinal epithelium; from a green rooibos extract solution): 3.49 ± 1.45 × 10^−6 cm/s
